Data as given in ChEMBL document CHEMBL3885881, “DrugMatrix”.

Species on record: Rattus norvegicus
Experiment: DrugMatrix - Regimen: Daily Repeat
Type: toxicity, organism-based, Sprague-Dawley
Parameters: regimen Daily Repeat, gender Male, age 6-8 weeks
Conditions: in vivo, po, […], route oral GAVAGE; for ABSOLUTE BASOPHIL / ABSOLUTE EOSINOPHIL / ABSOLUTE LYMPHOCYTE / ABSOLUTE MONOCYTE / ABSOLUTE SEGMENTED NEUTROPHIL / BASOPHIL / EOSINOPHIL / ERYTHROCYTE COUNT / HEMATOCRIT / HEMOGLOBIN / LEUKOCYTE COUNT / LYMPHOCYTE / MEAN CORPUSCULAR HEMOGLOBIN / MEAN CORPUSCULAR HEMOGLOBIN CONCENTRATION / MEAN CORPUSCULAR VOLUME / MONOCYTE / NEUTROPHIL / NUCLEATED RED BLOOD CELLS / PLATELET COUNT: tissue Blood; for ALANINE AMINOTRANSFERASE / ALBUMIN / ALKALINE PHOSPHATASE / ASPARTATE AMINOTRANSFERASE / BLOOD UREA NITROGEN / CARBON DIOXIDE / CHLORIDE / CHOLESTEROL / CREATINE PHOSPHOKINASE / CREATININE / GLUCOSE / LACTATE DEHYDROGENASE / LIPASE / PHOSPHORUS / POTASSIUM / SODIUM / TOTAL BILIRUBIN / TOTAL PROTEIN / URIC ACID: tissue Plasma
[1] = 130 mg/kg, dose level Low, time 7 day
[2] = 500 mg/kg, 72 h, dose level High, time 3 day
[3] = 500 mg/kg, dose level High, time 7 day

SMILES: CCOC(=O)C(C)(C)Oc1ccc(Cl)cc1 [CLOFIBRATE]
- ABSOLUTE BASOPHIL [1]: 0 CELLS/uL
- ABSOLUTE EOSINOPHIL [1]: 21.17 CELLS/uL
- ABSOLUTE LYMPHOCYTE [1]: 6867.67 CELLS/uL
- ABSOLUTE MONOCYTE [1]: 104.17 CELLS/uL
- ABSOLUTE SEGMENTED NEUTROPHIL [1]: 707 CELLS/uL
- BASOPHIL [1]: 0%
- EOSINOPHIL [1]: 0.17%
- ERYTHROCYTE COUNT [1]: 5.45 x10E6/uL
- HEMATOCRIT [1]: 34%
- HEMOGLOBIN [1]: 13.12 G/DL
- LEUKOCYTE COUNT [1]: 7.7 x10E3/uL
- LYMPHOCYTE [1]: 90.17%
- MEAN CORPUSCULAR HEMOGLOBIN [1]: 24.08 pg
- MEAN CORPUSCULAR HEMOGLOBIN CONCENTRATION [1]: 38.57 G/DL
- MEAN CORPUSCULAR VOLUME [1]: 62.45 fL
- MONOCYTE [1]: 1.17%
- NEUTROPHIL [1]: 8.5%
- NUCLEATED RED BLOOD CELLS [1]: 0 /100WBC
- PLATELET COUNT [1]: 1220 x10E3/uL
- ALANINE AMINOTRANSFERASE [1]: 65.83 u/L
- ALBUMIN [1]: 4.38 G/DL
- ALKALINE PHOSPHATASE [1]: 251.5 u/L
- ASPARTATE AMINOTRANSFERASE [1]: 76.33 u/L
- BLOOD UREA NITROGEN [1]: 14.33 mg/dL
- CARBON DIOXIDE [1]: 30.5 mmol/L
- CHLORIDE [1]: 104.5 MEQ/L
- CHOLESTEROL [1]: 60.5 mg/dL
- CREATINE PHOSPHOKINASE [1]: 323.5 u/L
- CREATININE [1]: 0.21 mg/dL
- GLUCOSE [1]: 149.17 mg/dL
- LACTATE DEHYDROGENASE [1]: 102.17 u/L
- LIPASE [1]: 9.67 u/L
- PHOSPHORUS [1]: 10.73 mg/dL
- POTASSIUM [1]: 5.56 MEQ/L
- SODIUM [1]: 146.55 MEQ/L
- TOTAL BILIRUBIN [1]: 0.1 mg/dL
- TOTAL PROTEIN [1]: 6.07 G/DL
- URIC ACID [1]: 0.98 mg/dL
- ABSOLUTE BASOPHIL [2]: 0 CELLS/uL
- ABSOLUTE EOSINOPHIL [2]: 0 CELLS/uL
- ABSOLUTE LYMPHOCYTE [2]: 11363.33 CELLS/uL
- ABSOLUTE MONOCYTE [2]: 222.5 CELLS/uL
- ABSOLUTE SEGMENTED NEUTROPHIL [2]: 1180.83 CELLS/uL
- BASOPHIL [2]: 0%
- EOSINOPHIL [2]: 0%
- ERYTHROCYTE COUNT [2]: 5.54 x10E6/uL
- HEMATOCRIT [2]: 33.68%
- HEMOGLOBIN [2]: 13.67 G/DL
- LEUKOCYTE COUNT [2]: 12.77 x10E3/uL
- LYMPHOCYTE [2]: 89%
- MEAN CORPUSCULAR HEMOGLOBIN [2]: 24.72 pg
- MEAN CORPUSCULAR HEMOGLOBIN CONCENTRATION [2]: 40.7 G/DL
- MEAN CORPUSCULAR VOLUME [2]: 60.78 fL
- MONOCYTE [2]: 1.67%
- NEUTROPHIL [2]: 9.33%
- NUCLEATED RED BLOOD CELLS [2]: 0 /100WBC
- PLATELET COUNT [2]: 1039.67 x10E3/uL
- ALANINE AMINOTRANSFERASE [2]: 88.83 u/L
- ALBUMIN [2]: 4.27 G/DL
- ALKALINE PHOSPHATASE [2]: 424.33 u/L
- ASPARTATE AMINOTRANSFERASE [2]: 162 u/L
- BLOOD UREA NITROGEN [2]: 18 mg/dL
- CARBON DIOXIDE [2]: 26.83 mmol/L
- CHLORIDE [2]: 103.5 MEQ/L
- CHOLESTEROL [2]: 32.5 mg/dL
- CREATINE PHOSPHOKINASE [2]: 350.5 u/L
- CREATININE [2]: 0.19 mg/dL
- GLUCOSE [2]: 152.17 mg/dL
- LACTATE DEHYDROGENASE [2]: 380 u/L
- LIPASE [2]: 9.17 u/L
- PHOSPHORUS [2]: 9.13 mg/dL
- POTASSIUM [2]: 6.05 MEQ/L
- SODIUM [2]: 141.43 MEQ/L
- TOTAL BILIRUBIN [2]: 0.2 mg/dL
- TOTAL PROTEIN [2]: 5.38 G/DL
- URIC ACID [2]: 1.42 mg/dL
- ABSOLUTE BASOPHIL [3]: 0 CELLS/uL
- ABSOLUTE EOSINOPHIL [3]: 10.67 CELLS/uL
- ABSOLUTE LYMPHOCYTE [3]: 6850.83 CELLS/uL
- ABSOLUTE MONOCYTE [3]: 72 CELLS/uL
- ABSOLUTE SEGMENTED NEUTROPHIL [3]: 433.17 CELLS/uL
- BASOPHIL [3]: 0%
- EOSINOPHIL [3]: 0.17%
- ERYTHROCYTE COUNT [3]: 5.25 x10E6/uL
- HEMATOCRIT [3]: 32.12%
- HEMOGLOBIN [3]: 12.58 G/DL
- LEUKOCYTE COUNT [3]: 7.37 x10E3/uL
- LYMPHOCYTE [3]: 92.67%
- MEAN CORPUSCULAR HEMOGLOBIN [3]: 23.97 pg
- MEAN CORPUSCULAR HEMOGLOBIN CONCENTRATION [3]: 39.23 G/DL
- MEAN CORPUSCULAR VOLUME [3]: 61.12 fL
- MONOCYTE [3]: 1%
- NEUTROPHIL [3]: 6.17%
- NUCLEATED RED BLOOD CELLS [3]: 0 /100WBC
- PLATELET COUNT [3]: 961.33 x10E3/uL
- ALANINE AMINOTRANSFERASE [3]: 91 u/L
- ALBUMIN [3]: 4.27 G/DL
- ALKALINE PHOSPHATASE [3]: 368.83 u/L
- ASPARTATE AMINOTRANSFERASE [3]: 131.17 u/L
- BLOOD UREA NITROGEN [3]: 15.67 mg/dL
- CARBON DIOXIDE [3]: 32 mmol/L
- CHLORIDE [3]: 102 MEQ/L
- CHOLESTEROL [3]: 52.67 mg/dL
- CREATINE PHOSPHOKINASE [3]: 300.5 u/L
- CREATININE [3]: 0.21 mg/dL
- GLUCOSE [3]: 154.17 mg/dL
- LACTATE DEHYDROGENASE [3]: 169.67 u/L
- LIPASE [3]: 10.17 u/L
- PHOSPHORUS [3]: 10.03 mg/dL
- POTASSIUM [3]: 5.38 MEQ/L
- SODIUM [3]: 143.68 MEQ/L
- TOTAL BILIRUBIN [3]: 0.1 mg/dL
- TOTAL PROTEIN [3]: 5.75 G/DL
- URIC ACID [3]: 0.85 mg/dL
